Values after ≈ are worked out from the molar mass of the structure shown.

For the data set the following is noted: buffer; pH 7.4; 200.0 µM.
Consider `CC(C)Sc1nc2c(c(=O)[nH]c(=O)n2C)n1Cc1ccccc1`, for which the solubility (kinetic) was 2.8 µg/mL (≈ 8.47 µM). Molecule `CC(C)Oc1ccc(/C=C/C(=O)NCC2COc3ccccc3O2)cc1` (centres undefined) gave a solubility (kinetic) of 2.8 µg/mL (≈ 7.92 µM). `Cc1ccc(S(=O)(=O)N2CCCCC2)cc1NC(=O)c1ccccc1Cl`: the solubility (kinetic) was found to be 23.2 µg/mL (≈ 59 µM).

`Cc1ccc(S(=O)(=O)N2CCC(C(=O)N3CCC3)CC2)cc1` returned a kinetic solubility of 47.4 µg/mL (≈ 147 µM). `O=C(CCNC(=O)c1ccc([N+](=O)[O-])cc1)NCc1cccs1`: the kinetic solubility was more than 50 µg/mL. `COc1ccc(-c2cc(C(=O)NC3CCCC3)no2)cc1` had a solubility (kinetic) of 0.4 µg/mL (≈ 1.4 µM). As for `CC(C)(C)OC(=O)N1CCC(C(=O)NCC2CCCO2)CC1` (centres undefined), the kinetic solubility is more than 46.9 µg/mL. As for `O=C(c1ccc(Cl)cc1)N1CCc2ccccc21`, the kinetic solubility was determined as 7.2 µg/mL (≈ 27.9 µM). `COc1ccccc1Nc1nc(-c2sc(N)nc2C)cs1` gave a kinetic solubility of 19.2 µg/mL (≈ 60.3 µM). `O=C(NC1CCCC1)C(c1cc2c(cc1[N+](=O)[O-])OCO2)N1CCCC1` (centres undefined) registered a solubility (kinetic) of 40.6 µg/mL (≈ 112 µM). In turn, `COc1ccc(CNc2nc3ccccc3n2C(C)C)cc1` yielded a solubility (kinetic) of 5.7 µg/mL (≈ 19.3 µM). For `Cc1cccc(/C(N)=N/OC(=O)c2ccncc2)c1`, the kinetic solubility is 29.1 µg/mL (≈ 114 µM). Molecule `CSc1ncc(C(=O)Nc2cccc(C)c2C)c(C)n1` returned a solubility (kinetic) of 17 µg/mL (≈ 59.2 µM). Molecule `CCc1ccc2nc(/N=C(\N)NC(=O)c3ccccc3)nc(C)c2c1` gave a solubility (kinetic) of less than 0.1 µg/mL. Regarding `COc1ccc(Cl)cc1Nc1nc(N)c2ccccc2n1.Cl`, the solubility (kinetic) turned out to be 5.3 µg/mL. For `CC(=O)c1sc(-c2ccc(Cl)cc2)nc1C` the value was less than 0.5 µg/mL; for `Cc1cc(C(=O)CN2C(=O)NC(CCS(C)(=O)=O)C2=O)c(C)n1C1CC1` (centres undefined), 48.3 µg/mL (≈ 127 µM). As for `O=C(O)C(=O)O.c1ccc(CNC23CC4CC(CC(C4)C2)C3)nc1`, the kinetic solubility came out at 45.8 µg/mL. Molecule `Cc1cccc(C)c1NC(=O)COC(=O)C1C2CC3OC(=O)C1C3C2` (centres undefined) returned a solubility (kinetic) of more than 51.5 µg/mL.

`COc1ccc(Cl)cc1C(=O)NCCN1CCOCC1` showed a kinetic solubility of more than 44.8 µg/mL. As for `COCCNC(=O)/C(C#N)=C/C=C/c1ccccc1`, the kinetic solubility turned out to be 28.9 µg/mL (≈ 113 µM). `Cc1csc(NC(=O)CSCC(=O)O)c1-c1nc2ccccc2s1` displayed a solubility (kinetic) of 48.6 µg/mL (≈ 128 µM). In turn, `COCC(=O)N1CCCC(N(C)CCc2ccc(OC)c(OC)c2)C1` (centres undefined) yielded a solubility (kinetic) of more than 52.6 µg/mL. The molecule `CC(=O)Nc1ccc(C(=O)N2CC(=O)NC(=O)C2)cc1` returned a kinetic solubility of more than 41.3 µg/mL. In turn, `COc1ccc2c(c1OC)C(=O)N(c1ccc(O)cc1)C2=O` yielded a solubility (kinetic) of 41.4 µg/mL (≈ 138 µM). In turn, `Cc1ccccc1NC(=O)c1cc2ccccc2o1` came in with a solubility (kinetic) of 33.7 µg/mL (≈ 134 µM). Molecule `COc1ccc(CC(C)NC2CCCCCC2)cc1` (centres undefined) yielded a solubility (kinetic) of 31 µg/mL (≈ 119 µM). With `CN1CCN(C(=O)N(c2ccccc2)c2ccccc2)CC1.Cl`, the solubility (kinetic) is more than 49.8 µg/mL. The figure for `O=C(NC1CCS(=O)(=O)C1)c1cccs1` (centres undefined) is more than 36.8 µg/mL. `Cc1cc2c(NC3CCCCC3)ncnc2s1.Cl` displayed a solubility (kinetic) of 15 µg/mL.

Molecule `O=C(Nc1ccc2c(c1)CCC2)c1cccs1` returned a kinetic solubility of 30.8 µg/mL (≈ 127 µM). On to `Cc1cc(NC(=O)c2c(C)noc2C)no1`, for which the solubility (kinetic) was more than 33.2 µg/mL. For the molecule `O=C(COC(=O)C12CC3CC(CC(C3)C1)C2)NCc1ccccc1`, the solubility (kinetic) was 10.2 µg/mL (≈ 31.2 µM). In turn, `O=C(NCCc1ccccc1F)C1CC(=O)N(c2ccccc2)C1` (centres undefined) came in with a kinetic solubility of 47.8 µg/mL (≈ 146 µM). `Cc1sc2ncnc(NCC(O)c3ccccc3)c2c1C` (centres undefined) had a solubility (kinetic) of 6.6 µg/mL (≈ 22 µM).

In the case of `O=c1cc(CN2CCN(S(=O)(=O)c3cccc(Cl)c3)CC2)c2ccc(O)cc2o1`, the kinetic solubility is 13.3 µg/mL (≈ 30.6 µM). Regarding `O=C(CNC(=O)c1ccc2ccccc2c1)NCc1ccc(F)cc1`, the solubility (kinetic) is 1.9 µg/mL (≈ 5.65 µM). For `Cl.NC1(C(=O)O)CC1` the value was more than 20.6 µg/mL. The figure for `Cc1ccc(C(=O)NC(=S)NCC2CCCO2)cc1[N+](=O)[O-]` (centres undefined) is more than 48.5 µg/mL; for `Cc1ccc2[nH]c(C(=O)N3CCCCC3)cc2c1` it is 7.6 µg/mL (≈ 31.4 µM); for `COc1ccc(NC(=O)Nc2c(C)noc2-c2ccccc2)cc1` it is 7.5 µg/mL (≈ 23.2 µM).

In turn, `Cc1ccc(SCC(=O)Nc2cc(S(=O)(=O)N3CCCCC3)ccc2C)cc1` came in with a solubility (kinetic) of 9.9 µg/mL (≈ 23.7 µM). For `O=C(Cc1ccc([N+](=O)[O-])cc1)N1CCN(c2ccc([N+](=O)[O-])cc2)CC1` the value was 5.2 µg/mL (≈ 14 µM); for `CCOc1ccc(OCc2ccc(C(=O)NC(C)(C)C)o2)cc1`, 8.8 µg/mL (≈ 27.7 µM).

Molecule `CN1CCOCCOCCOCCN(C)C1=S` yielded a solubility (kinetic) of more than 39.4 µg/mL. Molecule `O=C(Oc1ccccc1)c1cccnc1Oc1ccccc1` showed a kinetic solubility of 20.7 µg/mL (≈ 71.1 µM). `O=C(Nc1ccccc1Cl)c1ccc(-c2ccccn2)s1` came in with a kinetic solubility of 0.8 µg/mL (≈ 2.54 µM). `COc1ccc(S(=O)(=O)N(C)C)cc1NC(=O)COC(=O)C1CC1` gave a solubility (kinetic) of more than 53.5 µg/mL.

Consider `O=C(Nc1nccs1)c1ccc(-c2ccc(F)c(Cl)c2)o1`, for which the solubility (kinetic) is 0.5 µg/mL (≈ 1.55 µM).

Turning to `CC(=O)Nc1ccc(C(=O)Nc2ccncc2)cc1`, the kinetic solubility was 31.6 µg/mL (≈ 124 µM). Regarding `Cc1ccc(NC(=O)CCCNC(=O)c2ccc(Cl)cc2)c(O)c1`, the kinetic solubility is 13.1 µg/mL (≈ 37.8 µM). On to `COc1ccc(CNC(=O)CC(C)c2ccccc2)cc1` (centres undefined), for which the kinetic solubility worked out at 36.9 µg/mL (≈ 130 µM). In turn, `CC(C)n1c(/N=C/c2ccccc2O)nc2ccccc21` gave a solubility (kinetic) of 31.4 µg/mL (≈ 112 µM). `COCCNS(=O)(=O)c1cc(OC)c(C)cc1C` registered a kinetic solubility of more than 41 µg/mL. For `O=C(Cn1c(=S)[nH]c2ncccc2c1=O)NCCc1ccccc1`, the kinetic solubility stood at 2.1 µg/mL (≈ 6.17 µM). Molecule `Cc1cccc(-c2nc(Nc3cccc(O)c3)c3ccccc3n2)c1` returned a kinetic solubility of 1 µg/mL (≈ 3.05 µM). As for `CC1(C)C2CCC1(CS(=O)(=O)N1CCCC1C(=O)O)C(=O)C2` (centres undefined), the kinetic solubility is more than 49.4 µg/mL. For `CCOc1ccccc1NC(=O)COC(=O)c1cc(C)oc1C`, the kinetic solubility came to 2.2 µg/mL (≈ 6.93 µM). Consider `Cc1cccn2c(=O)c(C=O)c(Cl)nc12`, for which the kinetic solubility was more than 33.4 µg/mL. For `COc1ccc(Cl)cc1C(=O)O/N=C(\N)c1ccccn1` the value was more than 45.9 µg/mL; for `Cc1ccc(CNC(=O)CNC(=O)c2ccco2)cc1`, more than 40.8 µg/mL. On to `CSc1ncccc1C(=O)N(C)CC(=O)Nc1cccc(F)c1`, for which the kinetic solubility was more than 50 µg/mL. In the case of `Cc1ccc([N+](=O)[O-])cc1NC(=O)C1CCCC1`, the solubility (kinetic) was found to be 9.4 µg/mL (≈ 37.9 µM). The figure for `Cc1ccc(C(=O)NCc2ccco2)c(C)c1` is 33.6 µg/mL (≈ 147 µM); for `O=C(CN1C(=O)COc2ccccc21)NC1CCCC1` it is 32.9 µg/mL (≈ 120 µM).

On to `CC(=O)Nc1ccc(NC(=O)c2cc(-n3cnnc3)ccc2Cl)cc1`, for which the kinetic solubility is more than 53.4 µg/mL.

For `O=C(CSc1cccc[n+]1[O-])NCCCc1ccccc1`, the kinetic solubility is more than 45.4 µg/mL.

Regarding `COc1ccc(S(=O)(=O)Nc2noc3ccccc23)cc1OC`, the solubility (kinetic) is more than 50.2 µg/mL. In turn, `CN(Cc1ccccc1)C(NC(=O)c1ccco1)C(Cl)(Cl)Cl` (centres undefined) gave a solubility (kinetic) of 28.2 µg/mL (≈ 78 µM). Molecule `CN1CCCN(C(=O)CNC(=O)c2ccccc2F)CC1` came in with a solubility (kinetic) of more than 44 µg/mL. For `Cc1ccc2c(c1)CCCN2C(=O)c1cc(C)on1` the value was more than 38.4 µg/mL; for `C#CCOc1ccc2c(c1)c(C(C)=O)c(C)n2Cc1ccccc1`, 1 µg/mL (≈ 3.15 µM).

Regarding `COc1ccc(-c2cc(-c3cccnc3)c(C#N)c(N)n2)cc1`, the solubility (kinetic) is 0.6 µg/mL (≈ 1.98 µM). Consider `NCCS(=O)(=O)O`, for which the kinetic solubility amounted to 1.2 µg/mL (≈ 9.59 µM).

In turn, `COc1ccc(OCC2CCNCC2)cc1.Cl` displayed a kinetic solubility of 36.5 µg/mL.

For `Cl.Clc1cccc(N2CCNCC2)c1`, the kinetic solubility was more than 35 µg/mL. `CNC(=O)c1c(NC(=O)c2cccc(C)c2)sc2c1CCC2` had a solubility (kinetic) of 0.4 µg/mL (≈ 1.27 µM). With `CCOC(=O)c1c(NCCN(C)C)c2ccccc2[nH]c1=O`, the kinetic solubility was more than 45.5 µg/mL. As to `Cc1ccc(OS(=O)(=O)c2cn(C)c(=O)n(C)c2=O)cc1C`, the kinetic solubility was more than 48.7 µg/mL. `COc1ccccc1C(C)NC(=O)c1ccc(S(=O)(=O)NCc2ccco2)cc1` (centres undefined) displayed a solubility (kinetic) of 12.6 µg/mL (≈ 30.4 µM). Turning to `CC1CCCN(C(=O)COC(=O)COc2ccc(C#N)cc2)C1` (centres undefined), the solubility (kinetic) was more than 47.5 µg/mL. Molecule `CCC(=O)OCCNc1cc(SCCC(=O)OC)c2nonc2c1[N+](=O)[O-]` yielded a solubility (kinetic) of 54.9 µg/mL (≈ 138 µM). For the molecule `O=C(CN1C(=O)C2CCCCC2C1=O)Nc1nccs1` (centres undefined), the kinetic solubility is more than 44 µg/mL. The figure for `CNC(=S)Nc1ccc(OCc2ccccc2)cc1` is 29.5 µg/mL (≈ 108 µM). `O=C(NC1CCSc2ccccc21)c1cccc([N+](=O)[O-])c1` (centres undefined): the kinetic solubility came out at 2.4 µg/mL (≈ 7.63 µM). In the case of `O=S(=O)(Nc1ccc2c(c1)OCCO2)c1c(F)cccc1F`, the kinetic solubility was 47.8 µg/mL (≈ 146 µM).

For the molecule `Cc1ccc(NC2=CC(=O)CC(C)(C)C2)cc1Cl`, the kinetic solubility was 16.2 µg/mL (≈ 61.4 µM). The molecule `Cc1ccccc1CN(C)CCc1ccccn1.O=C(O)C(=O)O` registered a solubility (kinetic) of 25.6 µg/mL. `O=C(O)c1ccc2c(c1)SC1=NS(=O)(=O)CCN12`: the kinetic solubility is more than 42.6 µg/mL. For `O=C(OCCN1CCOCC1)c1ccc(O)cc1` the value was more than 37.7 µg/mL; for `FC(F)(F)c1ccccc1NC(=S)N1CCCCCC1`, more than 45.4 µg/mL; for `Cc1ccc(NC(=O)c2oc3ccccc3c2COC(C)C)cc1S(=O)(=O)N1CCOCC1`, 3.6 µg/mL (≈ 7.62 µM). The figure for `CCCC(NC(=O)c1ccc(Br)o1)c1nc2ccccc2[nH]1` (centres undefined) is 6.2 µg/mL (≈ 17.1 µM). For the molecule `CS(=O)(=O)c1ccc(C(=O)OCC(=O)Nc2cccnc2Cl)cc1[N+](=O)[O-]`, the kinetic solubility was more than 62.1 µg/mL.

`N#CCc1ccc(OC(=O)c2cccnc2Cl)cc1` showed a solubility (kinetic) of more than 40.9 µg/mL.

Molecule `COc1ccc(S(=O)(=O)NCC2CCC(C(=O)O)CC2)cc1` (centres undefined) had a solubility (kinetic) of more than 49.1 µg/mL.

For the molecule `COc1cccc(OCCNc2ccc([N+](=O)[O-])cn2)c1`, the kinetic solubility is 4.7 µg/mL (≈ 16.2 µM). On to `CCOC(=O)C1CCN(CC(O)COCc2ccc(Cl)cc2)CC1.Cl` (centres undefined), for which the kinetic solubility worked out at 57.5 µg/mL.

The molecule `Nc1ccc(C(=O)NCCCSc2ccccc2)cc1[N+](=O)[O-]` displayed a kinetic solubility of 1.6 µg/mL (≈ 4.83 µM). For `O=C(CCCN1C(=O)/C(=C\c2ccccc2)SC1=S)Nc1ccccc1O` the value was less than 0.4 µg/mL. `CCOC(=O)N1CCN(C(=O)CCc2ccc(S(=O)(=O)NCC(C)C)cc2)CC1` showed a kinetic solubility of 59.6 µg/mL (≈ 140 µM). The molecule `Cc1cccc(C(=O)O/N=C(\N)c2ccc(Cl)cc2)c1` gave a kinetic solubility of less than 0.3 µg/mL.

In turn, `CCC1Oc2ccccc2N(CC(=O)N2CCOCC2)C1=O` (centres undefined) had a kinetic solubility of more than 45.7 µg/mL. As for `COC(=O)c1ccc(COc2ccccc2/C=N/O)o1`, the kinetic solubility is more than 41.3 µg/mL.

(Values after PubChem BioAssay AID1996.)
